From publication PMC8991960, “A Bivalent Activatable Fluorescent Probe for Screening and Intravital Imaging of Chemotherapy‐Induced Cancer Cell Death” (Angewandte Chemie (International Ed. in English), 2021)
Starred links: 1 amine or outer side, 2 acyl side, 3 side chain; linkers in the order of their positions; H or OH if unused. Non-standard residues stand in square brackets, D forms with d. Residues, ends and D or L forms follow the SMILES beside them. X1 = CC1=CC(C)=[N+]2C1=C(c1cccc(-c3[nH]c4ccccc4c3C[C@H](N[*:1])C(=O)[*:2])c1)c1ccc(-c3ccc(C)s3)n1[B-]2(F)F

Experiments:
[1] = Stability analysis in mouse serum; type: in vitro ADME; conditions: mouse serum vs PBS, 24 h, 37 °C, 500 rpm; 25 µM (Figure S14) or 50 µM (method); HPLC after CH3CN protein precipitation, and fluorescence (exc 520 nm)
Description: Optical intravital imaging is increasingly used for the preclinical evaluation of anticancer drugs in vivo. Although imaging modalities like computed tomography, positron emission tomography and magnetic resonance imaging can help to visualise whole intact organs in a non‐invasive manner,[26] they lack the spatiotemporal resolution needed to study dynamic interactions between individual tumour and stromal cells. This feature is critical to understand the mechanism of action of anticancer drugs and how they can affect interactions between cancer cells and immune cells in the tumour microenvironment.[27] Intravital imaging heavily relies on the acquisition of fluorescence signals using multiphoton microscopy, which provides cellular resolution with deep tissue penetration (≈500 μm) and minimal photodamage.[28] […] First, we analysed the chemical stability of Apotracker Red for in vivo studies by incubating the probe in mouse serum. […] When primary tumours measured around 0.5–1 cm in diameter, we administered cisplatin intraperitoneally (10 mg kg^−1). […]
fluorescence emission of Apotracker Red before and after incubation in mouse serum and […]
Fluorescence spectra were recorded after excitation at 520 nm. […]
Lipid layer assays . […] The LoD was calculated using the equation LoD = (3 × σ)/k, where σ is the standard […]

MCF7 cells = experiment: Cell viability (TACS MTT cell proliferation assay); type: cell-based, human; conditions: MCF7, different concentrations, 3 h, n=5
Description: (§1) Figure S15. Cell viability experiments (TACS® MTT cell proliferation assay) after incubation of Apotracker Red in breast cancer cell lines (a: MCF7 cells, b: MDA-MB-231 cells) at different concentrations for 3 h. Data presented as means ± SD (n=5). P values obtained from one- way ANOVA using multiple comparisons (ns for p>0.05).
(§2) Figure S16. Quantification of E GFP+ macrophages in tumours from untreated and cisplatin-treated mice by time- lapse imaging on a spinning disk confocal microscope (λexc: 488 nm). Data presented as means ± SD of 8 random areas in 2- 3 mice per group (untreated or treated with 10 μg g-1 cisplatin for 72 h). […]

MDA-MB-231 cells = experiment: Cell viability (TACS MTT cell proliferation assay); type: cell-based, human; conditions: MDA-MB-231, different concentrations, 3 h, n=5
Description: as §1, §2

## CC1=CC(C)=[N+]2C1=C(c1cccc(-c3[nH]c4ccccc4c3C[C@@H]3NC(=O)[C@H](Cc4ccccc4)NC(=O)[C@H](Cc4c[nH]c5ccccc45)NC(=O)[C@H](CCCCN)NC(=O)[C@H](CCCCN)NC(=O)[C@H](CCCNC(=N)N)NC(=O)CNC3=O)c1)c1ccc(-c3ccc(C)s3)n1[B-]2(F)F [Apotracker Red] (cyclo(F[X1]GRKKW))
[1]
  Proteolytic stability in mouse serum: good proteolytic stability for up to 24 h
MCF7 cells
  Cell toxicity (MTT): did not cause cell toxicity
MDA-MB-231 cells
  Cell toxicity (MTT): did not cause cell toxicity
